Results published in US10704056B2, “Constitutively active ABA receptor mutants” (The Regents of the University of California, priority 2011, dated 2020).

Assays:
PYR1 [1] = target: T1, PYR1 (Arabidopsis thaliana, UniProt O49686); experiment: Yeast two-hybrid wild-type PYR1-HAB1 interaction with added ABA; assay type: cell-based; conditions: wild-type PYR1, 10 μM ABA
T1 construct: expressed in transfected cells; host or cells: S. cerevisiae strain Y190
T1 sequence (O49686 1-191): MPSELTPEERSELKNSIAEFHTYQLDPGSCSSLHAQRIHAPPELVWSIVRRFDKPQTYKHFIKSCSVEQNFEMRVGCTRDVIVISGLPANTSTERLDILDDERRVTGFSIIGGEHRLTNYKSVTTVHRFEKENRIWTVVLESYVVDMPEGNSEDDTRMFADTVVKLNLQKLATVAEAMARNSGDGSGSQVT
T1 sequence (Q9CAJ0 23-511 partner): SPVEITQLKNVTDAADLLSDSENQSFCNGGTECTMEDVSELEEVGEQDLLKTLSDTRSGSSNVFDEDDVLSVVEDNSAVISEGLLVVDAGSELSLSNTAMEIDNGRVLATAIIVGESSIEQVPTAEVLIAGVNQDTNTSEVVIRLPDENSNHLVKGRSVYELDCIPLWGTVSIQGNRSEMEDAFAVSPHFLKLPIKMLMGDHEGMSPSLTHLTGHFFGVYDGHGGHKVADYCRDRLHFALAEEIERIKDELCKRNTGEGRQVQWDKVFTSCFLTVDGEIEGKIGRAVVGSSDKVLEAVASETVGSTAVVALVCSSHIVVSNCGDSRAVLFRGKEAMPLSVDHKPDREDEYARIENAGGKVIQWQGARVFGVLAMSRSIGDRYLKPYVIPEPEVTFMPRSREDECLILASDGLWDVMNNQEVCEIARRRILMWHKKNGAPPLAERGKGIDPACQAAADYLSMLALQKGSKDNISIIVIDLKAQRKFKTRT
Procedure: 29 of 741 PYR1 mutants constructed, located in 10 different residues, increase the interaction between PYR1 and HAB1 in the absence of ABA, as measured using the yeast two hybrid assay (upper left panel). […] Each graph includes control wild-type PYR1 protein tested in the absence (diamonds) and presence (squares) of 10 μM ABA. Specific mutant proteins (triangles) were tested in the absence of ABA. […] Plotted in each graph is PP2C activity, expressed as % of control, which is the PP2C activity measured in the absence of ABA or receptor protein.
To define sites that can be mutated to improve interactions between PYR/PYL receptors and PP2Cs, we conducted saturation mutagenesis on 39 residues in PYR1 that normally contact ABA (i.e., are within the ligand-binding pocket of PYR1) and/or PP2Cs (i.e., are within the PP2C binding interface). All 741 single-mutant variants possible at these functionally critical locations were constructed and then assayed for PP2C interactions using a yeast two-hybrid based assay. Saturation mutagenesis is a method that involves the construction of all possible amino acid variants at a given site (i.e., the generation of all 19 substitution mutants per site). […]

PYR1 [2] = target: T2, PYR1 (Arabidopsis thaliana, UniProt O49686); conditions: cited from earlier work
T2 sequence (O49686 1-191): T1 sequence (O49686 1-191)

PYL1 = target: T3, PYL1 (Arabidopsis thaliana, UniProt Q8VZS8); conditions: cited from earlier work
T3 sequence (Q8VZS8 1-221): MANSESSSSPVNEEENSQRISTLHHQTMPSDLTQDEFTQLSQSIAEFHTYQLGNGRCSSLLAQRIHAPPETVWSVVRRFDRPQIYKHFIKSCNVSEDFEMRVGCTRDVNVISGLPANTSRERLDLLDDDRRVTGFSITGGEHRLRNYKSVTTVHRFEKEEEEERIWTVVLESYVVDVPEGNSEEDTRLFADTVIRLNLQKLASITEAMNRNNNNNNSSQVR

PYL2 = target: T4, PYL2 (Arabidopsis thaliana, UniProt O80992); conditions: cited from earlier work
T4 sequence (O80992 1-190): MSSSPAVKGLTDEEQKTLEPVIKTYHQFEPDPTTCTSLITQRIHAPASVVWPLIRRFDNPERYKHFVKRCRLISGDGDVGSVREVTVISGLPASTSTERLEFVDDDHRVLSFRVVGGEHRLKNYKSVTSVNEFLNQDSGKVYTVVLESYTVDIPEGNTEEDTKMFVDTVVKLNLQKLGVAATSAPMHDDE

PYL5 = target: T5, PYL5 (Arabidopsis thaliana, UniProt Q9FLB1); conditions: cited from earlier work
T5 sequence (Q9FLB1 1-203): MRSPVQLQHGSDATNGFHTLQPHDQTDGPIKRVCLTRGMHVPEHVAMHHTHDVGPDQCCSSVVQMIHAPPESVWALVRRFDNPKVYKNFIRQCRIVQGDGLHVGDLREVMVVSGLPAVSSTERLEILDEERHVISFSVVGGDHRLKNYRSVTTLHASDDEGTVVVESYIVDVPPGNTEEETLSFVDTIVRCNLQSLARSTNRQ

[3] = tested on: ABA-responsive gene transcription; conditions: in vivo; cited from earlier work
HAB1 = target: T6, HAB1 (Arabidopsis thaliana, UniProt Q9CAJ0); experiment: Yeast two-hybrid PYR1 mutant-HAB1 interaction assay (X-gal staining) in the absence of ABA; assay type: cell-based; conditions: no ABA
T6 construct: expressed in transfected cells; host or cells: S. cerevisiae strain Y190
T6 sequence (Q9CAJ0 1-511): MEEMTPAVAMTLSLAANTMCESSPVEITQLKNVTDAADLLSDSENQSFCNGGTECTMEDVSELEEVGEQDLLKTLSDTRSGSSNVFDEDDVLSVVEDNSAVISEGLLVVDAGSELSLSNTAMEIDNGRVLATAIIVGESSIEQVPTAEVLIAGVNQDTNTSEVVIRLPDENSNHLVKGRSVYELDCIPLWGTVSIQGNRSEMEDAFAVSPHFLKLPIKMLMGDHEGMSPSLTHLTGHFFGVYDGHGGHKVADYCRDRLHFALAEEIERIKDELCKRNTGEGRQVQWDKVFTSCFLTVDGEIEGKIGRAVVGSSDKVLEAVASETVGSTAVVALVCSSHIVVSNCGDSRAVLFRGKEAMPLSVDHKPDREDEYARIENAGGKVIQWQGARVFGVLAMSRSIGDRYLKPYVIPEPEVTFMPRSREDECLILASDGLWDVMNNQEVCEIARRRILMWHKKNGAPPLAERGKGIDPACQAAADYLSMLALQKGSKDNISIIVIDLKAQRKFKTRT
Description: To define sites that can be mutated to improve interactions between PYR/PYL receptors and PP2Cs, we conducted saturation mutagenesis on 39 residues in PYR1 that normally contact ABA (i.e., are within the ligand-binding pocket of PYR1) and/or PP2Cs (i.e., are within the PP2C binding interface). All 741 single-mutant variants possible at these functionally critical locations were constructed and then assayed for PP2C interactions using a yeast two-hybrid based assay. Saturation mutagenesis is a method that involves the construction of all possible amino acid variants at a given site (i.e., the generation of all 19 substitution mutants per site). We focused mutagenesis efforts on PYR1 because it is a well-characterized member of the PYR/PYL receptor family and has extensive structural data on which to guide mutagenesis studies, although it should be noted that the sites targeted display high sequence conservation among the PYR/PYL receptors (FIG. 1). Moreover, PYR1 is well suited for functional studies because its low basal activity allows its activation status to be studied using a yeast-based two-hybrid assay in which wild-type PYR1 will only bind to the PP2C HAB1 (or other PP2Cs) when the appropriate yeast cells are grown in the presence of ABA. […]

Columbia seeds = experiment: Seed dormancy / germination assay of 35S-driven transgenic lines, stratified vs unstratified; assay type: in vivo, Arabidopsis; conditions: 35S-driven overexpression in wild-type Columbia background
Procedure: To investigate the effects of the PYL2^CA3 allele, we performed a number of physiological assays on wild-type and aba2-1 genotypes. Columbia (Col), 35S::PYL2, and 35S::PYL2^CA3 seed samples were divided into two portions; one portion was stratified on ⅓ MS plates for 6 days at 4° C. and the second portion was plated six days later ⅓ MS plates. Both samples were the transferred to room temperature (23° C.) and incubated in darkness. […] Each experiment was performed in triplicate and each point plotted represents the average of tests conducted using 40 to 70 seeds. […] Thus, overexpression of PYL2^CA3 activates the ABA-regulated seed dormancy pathway.
In order to assay dormancy of seeds for Columbia, 35S::GFP-PYL2, and 35S::GFP-PYL2^CA3 were divided into two portions and surface sterilized using chlorine gas (prepared in situ using bleach and HCl). One portion was stratified on ⅓ MS agar plates for 6 days at 4° C. in darkness and the second portion, which was maintained at room temperature, was seeded six days later on the ⅓ MS agar plates; both samples were transferred to a 23° C. light-tight growth chamber and germination scored at 24 hour periods. The homozygous 35S::GFP-PYL2 and 35S::GFP-[…] seeds used in these experiments were ˜5- and ˜6-months post-harvest respectively at the time of the experiment shown in FIG. 12.

aba2-1 mutant seeds = experiment: Germination of aba2-1 background seeds on paclobutrazol or NaCl; assay type: in vivo, Arabidopsis; conditions: 35S-driven transgene, germination 72 hours
Description: As a further test of the ability of PYL2^CA3 to activate ABA signaling in vivo, we examined the ability of this allele to revert phenotypes caused by ABA deficiency, reasoning that effective activation of the ABA pathway should suppress phenotypes observed in the aba2 mutant. […] To test this, we examined the germination of various genotypes on paclobutrazol, an inhibitor of GA biosynthesis. Wild-type seed germination is blocked by paclobutrazol treatment but aba2 mutants germinate due to defects in ABA-induced seed dormancy. We also examined the germination of various genotypes in the presence of NaCl, which, like paclobutrazole, inhibits seed germination in an ABA- and aba2-dependent manner (Gonzalez-Guzman M. et al. (2002) Plant Cell 14(8):1833-1846; Leon-Kloosterziel K M, et al. (1996) Plant J 10 (4):655-661). […] Thus, expression of PYL2^CA3 in developing seeds is sufficient to activate an ABA-dependent physiological process despite the depleted ABA levels present in the aba2 background.
Germination tests on paclobutrazol (Wako Chemicals, Japan) and NaCl were conducted as following. Columbia, aba2-1, aba2-1; 35S::GFP-PYL2 and aba2-1; 35S::GFP-PYL2″^3 seeds were surface sterilized and plated onto ⅓ MS agar media containing 25, 50 or 100 μM paclobutrazol or 0, 50, 200, 250 mM NaCl. Control wells contained ⅓ MS agar and 0.1% DMSO, the carrier solvent for paclobutrazol. The seeds were stratified for four days in darkness and then transferred to continuous illumination at room temperature (23° C.). Germination was assayed after 72 hours; seeds showing radicals at least ½ seed length or greater were scored as positive. Each experiment was performed in triplicate; experiments were performed on seeds that were ˜6-months post-harvest.

CC1=CC(=O)CC(C)(C)[C@@]1(O)/C=C/C(C)=C\C(=O)O [ABA, Abscisic acid]
interaction between PYR1 and HAB1 (PYR1 [1]): promotes a strong interaction

O=S(=O)(NCc1ccccn1)c1ccc(Br)c2ccccc12 [pyrabactin]
agonist activity on PYR1 (PYR1 [2]): strong agonist activity | agonist activity on PYL1 (PYL1): strong agonist activity | activity on PYL2 (PYL2): weak partial-agonist/antagonist activity | activity on PYL5 (PYL5): weak partial-agonist/antagonist activity | ABA-responsive gene transcription in seeds [3]: essentially activates the full complement of ABA-responsive gene transcription in seeds

PYR1: wild-type Arabidopsis ABA receptor PYR1 (SEQ ID NO:1)
PYR1-HAB1 interaction in the absence of added ABA (HAB1): does not bind HAB1

B1: PYL2: wild-type ABA receptor PYL2 (SEQ ID NO:3), overexpressed as control (protein, listed as Arabidopsis thaliana)
chain: T4 sequence (O80992 1-190)
modifications: thale cress PYR/PYL receptor, abscisic acid receptor PYL2, PYR1-like protein 2 (PYL2), ABI1-binding protein 6 (ABIP6), regulatory components of ABA receptor 14 (RCAR14), Bet v I allergen family protein, At2g26040, T19L18.15
seed hyperdormancy (stratification dependent germination) (Columbia seeds): not | NaCl resistance of aba2 mutant seed germination (aba2-1 mutant seeds): unable to suppress | paclobutrazol resistance of aba2 mutant seed germination (aba2-1 mutant seeds): unable to suppress
